Entries after “also recorded” stand apart in the source; their conditions may differ.

The first assay relates to cancer cells. The assay can be described thus: List of active compounds: types of cancers and precancers active against.
Details: not given
Type of assay: cell-based. An excerpt: As discussed, the adamantyl retinoid derivatives according to the invention which induce apoptosis are useful for treating many different types of cancers.
Consider `O=C(O)c1ccc2cc(-c3ccc(CO)c(C45CC6CC(CC(C6)C4)C5)c3)ccc2c1` [Compound 3, 6-[3-(1-adamantyl)-4-hydroxymethylphenyl]-2-naphthoic acid], for which the “Types of Cancers and Precancers Active Against” value (from here on “Types”) was “bladder, brain, breast, cervical,; also recorded: colon, head and neck, leukemia,; also recorded: kidney, lung, myeloma, ovarian,; also recorded: pancreatic, prostate, skin, liver”.

In the case of `COc1ccc(-c2ccc3cc(C(=O)O)ccc3c2)cc1C12CC3CC(CC(C)(C3)O1)C2` [Compound 40, 6-[3-(2-oxa-3-methyl-1-adamantyl)-4-methoxyphenyl]-2-naphthoic acid], the “Types” value is “bladder, breast, kidney,; also recorded: leukemia, lung, lymphoma,; also recorded: ovarian, prostate, skin”.

With `COc1ccc(-c2ccc3cc(C(=O)O)ccc3c2)cc1C12CC3CC(CC(C)(C3)C1)C2` [Compound 41, 6-[3-(3-methyl-1-adamantyl)-4-methoxyphenyl]-2-naphthoic acid], the “Types” value is “skin”.

Consider `COc1ccc(-c2ccc3cc(C(=O)O)ccc3c2)cc1C12CC3CC(C)(CC(C)(C3)C1)C2` [Compound 42, 6-[3-(3,5-dimethyl-1-adamantyl)-4-methoxyphenyl]-2-naphthoic acid], for which the “Types” value is listed as “skin”.

With `CC12CC3CC(C)(C1)CC(c1cc(-c4ccc5cc(C(=O)O)ccc5c4)cc4c1OCO4)(C3)C2` [Compound 43, 6-[3-(3,5-dimethyl-1-adamantyl)-4,5-methylenedioxyphenyl]-2-naphthoic acid], the “Types” value is “prostate, breast, neuroblastoma”.

Consider `COc1ccc(-c2ccc3cc(C(=O)N4CCCNCC4)ccc3c2)cc1C12CC3CC(CC(C3)C1)C2` [Compound 44, N-{6-[3-(1-adamantyl)-4-methoxyphenyl]-2-naphthalenecarboxoyl}homopiperazide], for which the “Types” value is “bladder, kidney, epidermal,; also recorded: leukemia lung, neuroblastoma,; also recorded: hepatoma, cervix, skin”.

For `COc1ccc(-c2ccc3cc(C(=O)NCCN)ccc3c2)cc1C12CC3CC(CC(C3)C1)C2` [Compound 45, N-(2-aminoethyl)-{6-[3-(1-adamantyl)-4-methoxyphenyl]-2-naphthalenecarboxamide]], the “Types” value was “bladder, kidney, prostate,; also recorded: leukemia, breast, lung, neuro-; also recorded: blastoma, hepatoma, pancreas,; also recorded: cervix skin”.

As to `O=C(c1ccc2cc(-c3cc4c(c(C56CC7CC(CC(C7)C5)C6)c3)OCO4)ccc2c1)N1CCNCC1` [Compound 46, N-{6-[3-(1-adamantyl)-4,5-methylenedioxy]-2-naphthalenecarboxoyl}piperazide], the “Types” value is “prostate, neuroblastoma,; also recorded: hepatoma”.

For the compound `O=C(c1ccc2cc(-c3cc4c(c(C56CC7CC(CC(C7)C5)C6)c3)OCO4)ccc2c1)N1CCCNCC1` [Compound 47, N-{6-[3-(1-adamantyl)-4,5-methylenedioxy]-2-naphthalenecarboxoyl}homopiperazide], the “Types” value is “bladder, neuroblastoma, cervix, and skin”.

For the compound `NCCNC(=O)c1ccc2cc(-c3cc4c(c(C56CC7CC(CC(C7)C5)C6)c3)OCO4)ccc2c1` [Compound 48, N-(2-aminoethyl)-{6-[3-(1-adamantyl)-4,5-methylenedioxyphenyl]-2-naphthalenecarboxamide}], the “Types” value is “breast, hepatoma, skin”.

On to `CC12CC3CC(C1)CC(c1cc(-c4ccc5cc(C(=O)O)ccc5c4)ccc1O)(C3)C2` [Compound 49, 6-[3-(3-methyl-1-adamantyl)-4-hydroxyphenyl]-2-naphthalenecarboxylic acid], for which the “Types” value was “breast, neuroblastoma, leukemia”.

The test system of the next assay is various human cancer cell lines. The assay can be described thus: Anti-cancer activity against human cancer cell lines over a concentration range (FIGS. 2-4). Format: cell-based. The following applies: retinoid concentrations 10^−9 M to 10^−5 M. An excerpt:
FIG. 2 compares the activity of selected adamantyl retinoids according to the invention and all-trans-retinoic acid against a human non-small lung carcinoma cell line.
FIG. 3 compares the activity of selected adamantyl retinoids according to the invention and all-trans-retinoic acid against human prostate adenocarcinoma, human metastatic prostate adenocarcinoma, and human prostate carcinoma cell lines.
FIG. 4 compares the activity of selected adamantyl retinoids according to the invention and all-trans-retinoic acid against a human liver cancer cell line.
As for `O=C(O)c1ccc2cc(-c3ccc(CO)c(C45CC6CC(CC(C6)C4)C5)c3)ccc2c1` [Compound 3, 6-[3-(1-adamantyl)-4-hydroxymethylphenyl]-2-naphthoic acid], the anti-cancer activity result is reported as “significant anti-cancer activity”.
